In ChEMBL document CHEMBL1201862, “PubChem BioAssay data set” (2004):
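Five concentrations, 48 hours, 96-well plates. GI50 = concentration required for 50% inhibition of growth.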 The source made the active and inactive calls. No stated cut-off is given here; in the data, active = GI50 up to about 1.1 µM and inactive = higher.

What was measured:
Assay in all cases: NCI-60 cell line screen, 48 h
786-0 = tested on: 786-0
CAKI-1 = tested on: CAKI-1
COLO 205 = tested on: COLO 205
HCT-116 = tested on: HCT-116
HCT-15 = tested on: HCT-15
K562 = tested on: K562
LOX IMVI = tested on: LOX IMVI
MDA-MB-435 = tested on: MDA-MB-435
Malme-3M = tested on: Malme-3M
NCI/ADR-RES = tested on: NCI/ADR-RES
OVCAR-5 = tested on: OVCAR-5
RPMI-8226 = tested on: RPMI-8226
RXF 393 = tested on: RXF 393
SF-539 = tested on: SF-539
SK-MEL-5 = tested on: SK-MEL-5
SN12C = tested on: SN12C
SNB-75 = tested on: SNB-75
SW-620 = tested on: SW-620
UACC-257 = tested on: UACC-257

Structure (SMILES)	GI50 (786-0)	GI50 (CAKI-1)	GI50 (COLO 205)	GI50 (HCT-116)	GI50 (HCT-15)	GI50 (K562)	GI50 (LOX IMVI)	GI50 (MDA-MB-435)	GI50 (Malme-3M)	GI50 (NCI/ADR-RES)	GI50 (OVCAR-5)	GI50 (RPMI-8226)	GI50 (RXF 393)	GI50 (SF-539)	GI50 (SK-MEL-5)	GI50 (SN12C)	GI50 (SNB-75)	GI50 (SW-620)	GI50 (UACC-257)
COc1cc(/C=C\c2nnc(/C=C\c3ccc(O)c(OC)c3)s2)ccc1O	3.85 µM (inactive)	4.62 µM (inactive)	13.8 µM (inactive)	2.36 µM (inactive)	1.49 µM	1.77 µM (inactive)	2.59 µM (inactive)	0.495 µM (active)	2.11 µM (inactive)	1.6 µM (inactive)	22.2 µM (inactive)	1.98 µM (inactive)	1.16 µM (inactive)	2.44 µM (inactive)	1.16 µM (inactive)	4.31 µM (inactive)	2.33 µM (inactive)	1.74 µM (inactive)	2.16 µM (inactive)
COC(=O)Nc1nc2cc(NS(=O)(=O)c3cccs3)ccc2[nH]1	34.3 µM (inactive)	30.4 µM (inactive)	20.7 µM (inactive)	18.4 µM (inactive)	14.3 µM	5.53 µM (inactive)	36.3 µM (inactive)	3.62 µM (inactive)	10.4 µM (inactive)	25.1 µM (inactive)	37.2 µM (inactive)	35.1 µM (inactive)	19.3 µM (inactive)	29.2 µM (inactive)	18.6 µM (inactive)	39.1 µM (inactive)	20.7 µM (inactive)	20.7 µM (inactive)	
C=CCn1c2c(c3ccccc3c1=O)C(=O)c1ccccc1-2	22.4 µM (inactive)	> 100 µM (inactive)	> 100 µM (inactive)	> 26.2 µM (inactive)	> 100 µM	> 23 µM (inactive)	> 100 µM (inactive)	> 87.3 µM (inactive)	> 100 µM (inactive)	> 100 µM (inactive)	> 100 µM (inactive)	> 25.6 µM (inactive)	15.9 µM (inactive)	> 70.6 µM (inactive)	43.8 µM (inactive)	> 100 µM (inactive)	> 81.5 µM (inactive)	73.6 µM (inactive)	> 100 µM (inactive)
Cc1ccc([N+](=O)[O-])c2c(NCCNC(=O)c3cc(C(=O)NCCNc4ccnc5c(C)ccc([N+](=O)[O-])c45)n(C)n3)ccnc12	> 56 µM (inactive)	98.6 µM (inactive)	> 100 µM (inactive)	> 100 µM (inactive)	> 76.9 µM	40.5 µM (inactive)	> 44.7 µM (inactive)	> 41.6 µM (inactive)	55.2 µM (inactive)	> 100 µM (inactive)	> 84.9 µM (inactive)	41.2 µM (inactive)	> 100 µM (inactive)	> 100 µM (inactive)	32.1 µM (inactive)	> 57.7 µM (inactive)	45.2 µM (inactive)	32.9 µM (inactive)	> 81.1 µM (inactive)
CC(C)=C[C@H]1CCC2(OCCO2)[C@]1(C)CO	> 100 µM (inactive)	> 100 µM (inactive)	> 100 µM (inactive)	> 100 µM (inactive)	> 100 µM		> 100 µM (inactive)	> 100 µM (inactive)	> 100 µM (inactive)	> 100 µM (inactive)	> 100 µM (inactive)	> 100 µM (inactive)	> 100 µM (inactive)	> 100 µM (inactive)	> 100 µM (inactive)	> 100 µM (inactive)	> 100 µM (inactive)	> 100 µM (inactive)	> 100 µM (inactive)
CCOC(=O)CSc1nnc2cc(CN3CCCC3)c(-c3ccc(Cl)cc3)nn12	92.3 µM (inactive)	> 100 µM (inactive)	> 100 µM (inactive)	> 100 µM (inactive)	> 100 µM	83.8 µM (inactive)	> 100 µM (inactive)	72.9 µM (inactive)	> 100 µM (inactive)	> 100 µM (inactive)	> 100 µM (inactive)	63.2 µM (inactive)	86.5 µM (inactive)	60.1 µM (inactive)	> 100 µM (inactive)	> 100 µM (inactive)	85.5 µM (inactive)	> 100 µM (inactive)	91.4 µM (inactive)
c1cnc2c(c1)ccc1cccnc12	3.78 µM (inactive)	3.18 µM (inactive)	4.27 µM (inactive)	3.78 µM (inactive)	3.12 µM	3.67 µM (inactive)	3.61 µM (inactive)	5.21 µM (inactive)	3.56 µM (inactive)	2.37 µM (inactive)	5.31 µM (inactive)	2.67 µM (inactive)	4.48 µM (inactive)	3.72 µM (inactive)	2.62 µM (inactive)	3.27 µM (inactive)	13.6 µM (inactive)	8.69 µM (inactive)	3.78 µM (inactive)
COC(=O)c1cc(C)ccc1/C=C1\Cc2c(C)cc(C)cc2C1=O	14 µM (inactive)	30.6 µM (inactive)	> 100 µM (inactive)	8.41 µM (inactive)	> 100 µM	> 100 µM (inactive)	> 30.7 µM (inactive)	59 µM (inactive)	> 63.4 µM (inactive)	64.3 µM (inactive)	> 43.9 µM (inactive)	10.3 µM (inactive)	16.1 µM (inactive)	15.6 µM (inactive)	> 100 µM (inactive)	69 µM (inactive)	16.2 µM (inactive)	> 100 µM (inactive)	> 18.3 µM (inactive)
CN(C)c1ncnc2c1ncn2C1C=CC(COS(N)(=O)=O)C1 (stereo not drawn)	> 100 µM (inactive)	> 100 µM (inactive)	> 100 µM (inactive)	> 100 µM (inactive)	> 100 µM	82.4 µM (inactive)	96.2 µM (inactive)	> 100 µM (inactive)	> 100 µM (inactive)	> 100 µM (inactive)		> 100 µM (inactive)	66.1 µM (inactive)	> 100 µM (inactive)	> 100 µM (inactive)	> 100 µM (inactive)	> 100 µM (inactive)	> 100 µM (inactive)	> 100 µM (inactive)
Cc1c(/C=N/NC(=S)N2CCCCC2)c(=O)n(-c2ccccc2)n1C	73.5 µM (inactive)	77.1 µM (inactive)	29.9 µM (inactive)	57.8 µM (inactive)	23.1 µM	36.6 µM (inactive)	70.5 µM (inactive)	> 100 µM (inactive)	54.1 µM (inactive)	28.9 µM (inactive)	> 100 µM (inactive)	67.5 µM (inactive)	26.5 µM (inactive)	> 100 µM (inactive)	38.5 µM (inactive)		> 100 µM (inactive)	74.1 µM (inactive)	> 100 µM (inactive)
CN(/N=C\c1ccc2ccccc2c1)C1=NCCCN1	12.7 µM (inactive)	4.88 µM (inactive)	12.7 µM (inactive)	13.8 µM (inactive)	17.7 µM	11.7 µM (inactive)	7.41 µM (inactive)	15.2 µM (inactive)	13.3 µM (inactive)	19.5 µM (inactive)	28.1 µM (inactive)	14.9 µM (inactive)	14.3 µM (inactive)	19.8 µM (inactive)	11.9 µM (inactive)		13.3 µM (inactive)	12.1 µM (inactive)	10.4 µM (inactive)
CN(C)N1C(=C(C#N)C#N)C(c2ccccc2)CC1C#N (stereo not drawn)	> 100 µM (inactive)	> 100 µM (inactive)	> 100 µM (inactive)	> 100 µM (inactive)	> 100 µM	> 100 µM (inactive)	> 100 µM (inactive)	> 100 µM (inactive)	> 100 µM (inactive)	> 100 µM (inactive)	> 100 µM (inactive)	> 100 µM (inactive)	> 100 µM (inactive)	> 100 µM (inactive)	> 100 µM (inactive)	> 100 µM (inactive)	57.8 µM (inactive)	> 100 µM (inactive)	> 100 µM (inactive)
O=c1[nH]nc(Cc2ccccc2)n1/N=C/c1ccc([N+](=O)[O-])o1	2.76 µM (inactive)	3.11 µM (inactive)	1.89 µM (inactive)	2.06 µM (inactive)	2.08 µM	4.09 µM (inactive)	0.659 µM (active)	1.57 µM (inactive)	1.51 µM (inactive)	2.75 µM (inactive)	6.68 µM (inactive)	2.63 µM (inactive)	1.88 µM (inactive)	2.11 µM (inactive)	1.83 µM (inactive)	3.31 µM (inactive)	3.3 µM (inactive)	1.39 µM (inactive)	3.56 µM (inactive)
COc1ccc(-n2c(=O)c3nc[nH]c3n(-c3ccc(OC)cc3)c2=S)cc1	> 100 µM (inactive)	> 100 µM (inactive)	> 100 µM (inactive)	> 100 µM (inactive)	> 100 µM	> 100 µM (inactive)	> 100 µM (inactive)	> 100 µM (inactive)		> 100 µM (inactive)	> 100 µM (inactive)	> 100 µM (inactive)	> 100 µM (inactive)	> 100 µM (inactive)	> 100 µM (inactive)	> 100 µM (inactive)	> 100 µM (inactive)	> 100 µM (inactive)	> 100 µM (inactive)
CCN(CC)CCC(=O)c1ccc(Oc2ccccc2)cc1	15.6 µM (inactive)	16.7 µM (inactive)	17.7 µM (inactive)	17.9 µM (inactive)	17.4 µM	35.3 µM (inactive)	16.8 µM (inactive)	20.7 µM (inactive)	15.1 µM (inactive)	21.9 µM (inactive)	20.7 µM (inactive)	5.79 µM (inactive)	18.9 µM (inactive)	18.6 µM (inactive)		17.6 µM (inactive)	19.5 µM (inactive)	17.1 µM (inactive)	17.2 µM (inactive)
